From patent US8268778B2, “Flavivirus NS5A proteins for the treatment of HIV” (priority 2007, dated 2012) come the findings set out here.

The test system of assay [1] is HIV-1 isolate (X4). Kind of assay: HIV replication (p24 antigen release) in Jurkat cell lines stably expressing NS5A proteins/peptides. It counts as cell-based. The note with it: Jurkat cell lines stably expressing the protein/peptide vs vector and frame-shift controls.
In assay [2] the test system is SDF-1. It counts as cell-based, human.
For assay [3], the system named is CD4. It counts as cell-based, human.
The test system of assay [4] is CXCR4. It counts as cell-based, human.
Assay [5] deals with HIV-1 isolate (X4). It counts as cell-based.
For assay [6], the system named is Jurkat cells. It counts as cell-based, human.

“Also recorded” adds a separate entry of the source.

For “VDGIPVSWDADARA (Hepatitis GB virus C) [152-165]”, the “HIV replication (HIV p24 antigen release into culture supernatants)” value in assay [1] is reported as “significantly reduced”. Besides, the “SDF-1 release into culture supernatants” value in assay [2] is on record as “induced”.

With VDGIPVEWDADARAPA [S158E], in assay [1], the “HIV replication (HIV p24 antigen release into culture supernatants)” value is “significantly inhibited; also recorded: significantly less HIV replication than all other cell lines”. Also, the CD4 surface expression entry in assay [3] is reported as “down-regulate CD4”. For the same sequence, the CXCR4 surface expression result in assay [4] is “significantly less CXCR4 expressed”. Besides, the “SDF-1 release into culture supernatants” value in assay [2] is listed as “induced SDF-1 release”.

“VDGIPVAWDADARAPA (Hepatitis GB virus C) [S158A]”: the “HIV replication (HIV p24 antigen release into culture supernatants)” value in assay [1] was “inhibited HIV replication; also recorded: significantly less HIV replication than FS and VC”. Moreover, the CD4 surface expression entry in assay [3] is “do not”.

On to “VDGIPVGWDADARAPA (Hepatitis GB virus C) [S158G]”, for which, in assay [1], the “HIV replication (HIV p24 antigen release into culture supernatants)” value was “inhibited HIV replication; also recorded: significantly less HIV replication than FS and VC”. The CD4 surface expression result in assay [3] is given as “do not”.

Turning to “DVIRAGPAWDSVAPAD [152-167scr, negative control, reference compound]”, the CD4 surface expression result in assay [3] is recorded as “do not”. Moreover, the HIV replication entry in assay [5] is reported as “Neither peptide inhibited HIV replication”.

For “VDGIPVSWDADARAPA (Hepatitis GB virus C) [152-167]”, the “HIV replication (HIV p24 antigen release into culture supernatants)” value in assay [1] is reported as “significantly reduced”. Also, in assay [6], the “CD4 mRNA regulation, in words” value is reported as “down-regulated”; the “regulation of Th2 cytokines, TNFα, and BCL2 mRNA” value is “do not appear to be altered”. In addition, the CD4 surface expression result in assay [3] is on record as “down-regulate CD4”.
